The results in this text go back to ChEMBL document CHEMBL4152336, “Optimization of the first small-molecule relaxin/insulin-like family peptide receptor (RXFP1) agonists: Activation results in an antifibrotic gene expression profile” (Eur J Med Chem, 2018).

Data set [1] is described as follows: Aqueous kinetic solubility of the compound in PBS by shake-flask method. The class given is physicochemical. Particulars: for solubility kinetic: PBS, read-out: Kinetic_solubility.
The target in data set [2] is T1, Relaxin receptor 1 (Homo sapiens, UniProt Q9HBX9).
T1 sequence (Q9HBX9 whole entry): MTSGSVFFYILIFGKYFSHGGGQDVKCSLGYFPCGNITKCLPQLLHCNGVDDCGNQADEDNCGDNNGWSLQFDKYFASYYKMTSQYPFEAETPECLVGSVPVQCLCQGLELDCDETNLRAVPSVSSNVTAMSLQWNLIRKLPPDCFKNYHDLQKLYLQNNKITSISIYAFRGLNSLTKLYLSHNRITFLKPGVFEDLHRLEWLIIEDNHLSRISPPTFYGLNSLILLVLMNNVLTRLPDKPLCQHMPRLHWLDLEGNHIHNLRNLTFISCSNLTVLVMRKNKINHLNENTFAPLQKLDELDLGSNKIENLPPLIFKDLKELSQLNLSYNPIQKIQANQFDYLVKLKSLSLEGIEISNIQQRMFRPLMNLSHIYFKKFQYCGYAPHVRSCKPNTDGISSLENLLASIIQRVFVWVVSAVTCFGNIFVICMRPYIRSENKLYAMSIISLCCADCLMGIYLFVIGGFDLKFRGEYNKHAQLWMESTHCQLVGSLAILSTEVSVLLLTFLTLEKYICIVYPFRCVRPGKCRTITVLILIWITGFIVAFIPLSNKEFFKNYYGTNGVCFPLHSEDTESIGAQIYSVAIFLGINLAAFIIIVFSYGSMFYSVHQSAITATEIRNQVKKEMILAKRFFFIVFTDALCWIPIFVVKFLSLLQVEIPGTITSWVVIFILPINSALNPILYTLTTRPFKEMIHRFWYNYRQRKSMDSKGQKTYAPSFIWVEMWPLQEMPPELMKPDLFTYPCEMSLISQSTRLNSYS
The data set is classed as functional, cell-based, HEK293. Particulars: read-out: EC50.

Data set [3] addresses T2, Relaxin receptor 1 (Homo sapiens) (UniProt Q9HBX9).
T2 sequence (whole entry): T1 sequence (Q9HBX9 whole entry)
The class given is functional, cell-based. Particulars: HEK293.

The conditions of data set [4]: rat, microsomes.
Description: Half life in rat liver microsomes
Data set [5] has as its system HEK293. Put plainly: Cytotoxicity against HEK293 cells assessed as reduction in cell viability by measuring ATP level by ATPlite assay. The data set is classed as cell-based. The conditions noted are these: Homo sapiens. Background: Cellular ATP, detected with luciferase, serves as a proxy for viable cell number.
Data set [6] in a line: Metabolic stability in mouse liver microsomes assessed as parent compound remaining after 60 mins. The class given is ADME, microsome. Particulars: read-out: Stability.

SMILES strings stand for the structures. pEC50: −log10 of the molar value. In brackets after ≈: the same amount, converted by molar mass.

For the compound `CCOc1ccccc1C(=O)Nc1cccnc1C(=O)Nc1cccc(S(=O)(=O)C(F)(F)F)c1`, in data set [1], the solubility kinetic is less than 1000 µM. The pEC50 (commonly the EC50 on a negative log10 scale, so that one unit is a factor of ten) in data set [2] is 5.33. In data set [3], this compound showed an Efficacy of 73%. The same compound gave a t1/2 in data set [4] of more than 30 min.

Turning to `CCCOc1ccccc1C(=O)Nc1ccccc1C(=O)Nc1cccc(S(=O)(=O)C(F)(F)F)c1`, the solubility kinetic in data set [1] worked out at 17 µM (≈ 8.61 µg/mL). For the same compound, the values for the pEC50 in data set [2] and in data set [5] were 7.28 and 5.03, respectively. The Efficacy in data set [3] worked out at 98%. This compound showed a t1/2 in data set [4] of 26.8 min.

With `CCOc1ccccc1C(=O)Nc1ncccc1C(=O)Nc1cccc(S(=O)(=O)C(F)(F)F)c1`, the solubility kinetic in data set [1] was less than 1000 µM. Further, in data set [2], the pEC50 was 5.78. This compound also showed an Efficacy in data set [3] of 98%. This compound registered a t1/2 in data set [4] of 19.85 min.

`O=C(Nc1ccccc1C(=O)Nc1ccccc1C(=O)NCc1ccco1)c1ccco1`: the Kinetic_solubility in data set [1] (buffer) turned out to be 3.7 µM. Also, in data set [6], the remaining at 1 h is 2%.

`O=C(Nc1cccc(C(F)(F)F)c1)c1ccccc1NC(=O)C1CCCCC1`: the pEC50 in data set [2] was 5.73. The remaining at 1 h in data set [6] was 70%. This compound also gave an Efficacy in data set [3] of 92%.

Take `CCCCOc1ccccc1C(=O)Nc1ccccc1C(=O)Nc1cccc(S(=O)(=O)C(F)(F)F)c1`: the solubility kinetic in data set [1] worked out at 5.3 µM (≈ 2.76 µg/mL). Moreover, the pEC50 in data set [2] is 7.33. In addition, in data set [3], the Efficacy stood at 98%. This compound also registered a t1/2 in data set [4] of 19.5 min.

On to `CCOc1ccccc1C(=O)Nc1cnccc1C(=O)Nc1cccc(S(=O)(=O)C(F)(F)F)c1`, for which the solubility kinetic in data set [1] is less than 1000 µM. In addition, the pEC50 in data set [2] was 5.53. For the same compound, the Efficacy in data set [3] was determined as 99%.
